For data set [1] the following is noted: applied to the epithelium of the skin, gout model.
Text: Once that occurred, the lithium acted on the tissues and blood vessels surrounding the joint, preventing the entry of the inflammatory cells into the joint.
For data set [2] the following is noted: serum of subjects tested; cited from earlier work.
In data set [3] the target is GSK3B (Homo sapiens, UniProt P49841). As to conditions: in neutrophils; cited from earlier work.
Data set [4] relates to MSU-induced gout in the rat ankle. To be noted: for KC-GRO (KC/GRO) level: synovial fluid, eight hours post MSU-induced gout.
Data set [5] has the same test system. As to conditions: photomicrograph at 2-times magnification after topical administration. An excerpt: It was anticipated that the pathology may bring additional clarity to show lithium carbonate's action on the cytokine storm. Rat ankle samples banked in formalin were sent for microscopic analysis.
Where [6] appears, read: BRT rat MSU model, eight hours post MSU, topical application.

Like-named read-outs stand apart in the source and are kept apart here.

Chain of GSK3B (P49841 whole entry, species assumed): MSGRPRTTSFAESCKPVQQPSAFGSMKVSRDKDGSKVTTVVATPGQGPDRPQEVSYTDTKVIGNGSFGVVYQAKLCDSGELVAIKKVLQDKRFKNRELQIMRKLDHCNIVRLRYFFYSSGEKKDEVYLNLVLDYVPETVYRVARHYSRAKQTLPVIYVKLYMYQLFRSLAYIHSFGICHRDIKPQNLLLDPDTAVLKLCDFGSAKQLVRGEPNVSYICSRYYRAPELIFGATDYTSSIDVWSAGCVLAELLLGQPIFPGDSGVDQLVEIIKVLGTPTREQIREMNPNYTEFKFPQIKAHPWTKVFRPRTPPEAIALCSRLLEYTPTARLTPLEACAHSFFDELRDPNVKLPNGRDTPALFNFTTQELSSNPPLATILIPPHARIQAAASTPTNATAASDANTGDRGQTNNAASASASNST

As for `O=C([O-])[O-].[Li+].[Li+]` [lithium carbonate], the “Penetration of skin epithelium” value in data set [1] was “penetrated to the synovium”. For the same compound, in data set [2], the IL-1β in serum result is given as “consistent increase”, the IL-6 in serum result was “consistent increase” and the TNF-α in serum result is “consistent increase”. Further, the “Increase of TNF-α protein synthesis” value in data set [3] is above 3 fold. Besides, in data set [4] (setting [6]), the IL-1β level entry is recorded as “induction”, the IL-6 level result is on record as “induction” and the TNF-α level entry was “induction”. In data set [4] (rat ankle, topical application), the “KC-GRO (KC/GRO) level” value is “Attenuation”. Besides, in data set [4] (rat ankle, topical application, listed as lithium), the “KC-GRO (KC/GRO) level” value was “surprisingly lessened”. In data set [4] (topical application of 2% lithium carbonate, rat ankle), the Effect on gout result is on record as “attenuated gout”. In addition, in data set [5], the Edema result is given as “minimal edema”, the “Raft of white blood cells” value is “only a very small raft of white blood cells” and the Synovial hypertrophy entry is reported as “minimal synovial hypertrophy”.

(Values after US11850259B2, “Methods of treating viral infections affecting the respiratory tract using topically administered lithium agents” (United States Government as Represented by the Department …, priority 2020, dated 2023).)
